Consider 20 molecules from patent US20220227729A1, “IDENTIFICATION AND USE OF KRAS INHIBITORS” (Bayer Aktiengesellschaft, priority 2019, published 2022).

pIC50: −log10 of the molar value. A value given as a limit tells only on which side of the number the result lay.

One assay addresses KRAS^WT (Homo sapiens, UniProt P01116). The assay can be described thus: Wild-type KRAS activation by SOS1cat assay, HTRF. The settings on record: SOS1cat mediated loading of GST-KRAS WT-GDP with fluorescent GTP analogue; 50 nM GST-KRAS WT; read-out: IC50 value biochemical KRAS^wt activation assay. Here is the method:
(§1) Preparation of test compound dilutions. A 100-fold concentrated solution of the test compound (50 nL) in DMSO was transferred to microtiter test plates (384 or 1,536 wells, Greiner Bio-One, Germany) using either a Hummingbird liquid handler (Digilab, MA, USA) or an Echo acoustic system (Labcyte, CA, USA). Plates were sealed with adhesive foil or heat-sealed and stored at −20° C. until use. Serial dilutions of test compounds were prepared in 100% DMSO using a Precision Pipetting System (BioTek, USA).
(§2) Measurement and evaluation of inhibition data, calculation of IC50 values. Homogeneous time-resolved fluorescence (HTRF) was measured with a PHERAstar reader (BMG, Germany) using the HTRF module (excitation: 337 nm; emission 1: 620 nm, emission 2: 665 nm). The ratio of the emissions at 665 and 620 nm was used as the specific signal for further evaluation. The data were normalized using the controls: DMSO=0% inhibition, inhibition control wells with inhibitor control solution=100% inhibition. Compounds were tested in duplicates at up to 11 concentrations (e.g. 20 μM, 5.7 μM, 1.6 μM, 0.47 μM, 0.13 μM, 38 nM, 11 nM, 3.1 nM, 0.89 nM, 0.25 nM and 0.073 nM). IC50 values were calculated using a four-parameter fit, with a commercial software package (Genedata Screener, Switzerland).
(§3) KRAS^G12C activation by SOS1^cat assay (“On-assay”). This assay quantifies SOS1^cat mediated loading of KRAS^G12C-GDP with a fluorescent GTP analogue. Detection of successful loading was achieved by measuring resonance energy transfer from anti-GST-terbium (FRET donor) bound to GST-KRAS^G12c to the loaded fluorescent GTP analogue (FRET acceptor). The fluorescent GTP analogue EDA-GTP-DY-647P1 [2′/3′-O-(2-aminoethyl-carbamoyl)guanosine-5′-triphosphate labelled with DY-647P1 (Dyomics GmbH, Germany)] was synthesized by Jena Bioscience (Germany) and supplied as a 1 mM aqueous solution. A KRAS^G12C working solution was prepared in assay buffer [10 mM HEPES pH 7.4 (AppliChem), 150 mM NaCl (Sigma), 5 mM MgCl2 (Sigma), 1 mM DTT (Thermo Fisher), 0.05% BSA Fraction V pH 7.0 (ICN Biomedicals), 0.0025% (v/v) Igepal (Sigma)] containing 100 nM GST-KRAS^G12C and 2 nM anti-GST-terbium (Cisbio, France). A SOS1^cat working solution was prepared in assay buffer containing 20 nM SOS1^cat and 200 nM EDA-GTP-DY-647P1. An inhibitor control solution was prepared in assay buffer containing 200 nM EDA-GTP-DY-647P1 without SOS1^cat. All steps of the assay were performed at 20° C. A volume of 2.5 μL of the KRAS^G12C working solution was added to all wells of the test plate using a Multidrop dispenser (Thermo LabSystems). After 180 min, 2.5 μL of the SOS1^cat working solution was added to all wells, except for the inhibitor control solution wells. After 30 min incubation, HTRF was measured.
Wild-type KRAS activation by SOS1^cat assay. This assay quantifies human SOS1^cat mediated loading of wild-type GST-KRAS^WT-GDP with a fluorescent GTP analogue. The assay was performed similar to the KRAS^G12C activation by SOS1^cat assay. GST-KRAS^G12C was replaced by GST-KRAS^WT, which was used at 50 nM final concentration.

The next assay deals with KRAS^G12C (Homo sapiens, UniProt P01116, G12C). Kind of assay: KRAS G12C activation by SOS1cat assay (On-assay), HTRF. The settings on record: SOS1cat mediated loading of GST-KRAS G12C-GDP with fluorescent GTP analogue; 180 min preincubation; 20° C.; read-out: IC50 value biochemical KRAS^G12C activation assay. Here is the method: as §1, §2, §3
In assay [1] the target is recombinant kRas mutant (G12C; C51S; C80L; C118S) (Homo sapiens, UniProt P01116, C118S/C51S/C80L/G12C). Kind of assay: Covalent binding assay, intact mass LC-MS. The settings on record: 25 μM protein, 25 μM compound, room temperature, 2 h. Here is the method: The percentage of covalent adduct formation at KRas G12C was determined by intact mass determination. To this end 25 μM recombinant kRas mutant (G12C; C51S; C80L; C118S) (storage buffer: 50 mM Tris, pH=8; 50 mM NaCl) were incubated with 25 μM of compound (1% v/v final DMSO concentration) at room temperature for 2 h. For LC-MS analysis the reaction was acidified by adding 4 μL of 4% v/v TFA to 20 μL reaction volume.
Liquid chromatography-mass spectrometry (LC-MS) analysis was performed using a Waters SYNAPT G2-S quadrupole time-of-flight mass spectrometer connected to a Waters nanoAcquity UPLC system. Samples were loaded on a 2.1×5 mm mass prep C4 guard column (Waters) and desalted with a short gradient (3 min.) of increasing concentrations of acetonitrile at a flow rate of 100 μL/min. Spectra were analyzed by using MassLynx v4.1 software and deconvoluted with the MaxEnt1 algorithm.
Percent conversion was determined by the ratio of signal intensities of apo-kRas and kRas+inhibitor.

In general, pIC50 refers to −log10 of the IC50, conventionally taken in molar units. Regarding `C=CC(=O)N1CCC(c2cc3cnc(-c4c(F)cccc4OC)cc3c(=O)[nH]2)C1` (stereo not shown) [Example 41, 7-(2-Fluoro-6-methoxyphenyl)-3-[1-(prop-2-enoyl)pyrrolidin-3-yl]-2,6-naphthyridin-1(2H)-one], the pIC50 on KRAS^WT and at KRAS^G12C was below 4.70 each time. Further, the “Covalent Binding Assay (% binding)” value in assay [1] is listed as 32%.

In the case of `C=CC(=O)N1CCC(c2cc3cc(OC)c(-c4ncccc4F)cc3c(=O)[nH]2)C1` (stereo not shown) [Example 9, 7-(3-Fluoropyridin-2-yl)-6-methoxy-3-[-1-(prop-2-enoyl)pyrrolidin-3-yl]isoquinolin-1(2H)-one], the pIC50 on KRAS^WT and at KRAS^G12C was below 4.70 in each case. Further, the “Covalent Binding Assay (% binding)” value in assay [1] stood at 0%.

For the molecule `C=CC(=O)N1CCC(c2nc3cc(Cl)c(-c4ccc(F)cc4F)cc3c(=O)[nH]2)C1` (stereo not shown) [Example 23, 7-Chloro-6-(2,4-difluorophenyl)-2-[1-(prop-2-enoyl)pyrrolidin-3-yl]quinazolin-4(3H)-one], the pIC50 at KRAS^WT and on KRAS^G12C was below 4.70 in each case. The “Covalent Binding Assay (% binding)” value in assay [1] was 34%.

With `C=CC(=O)N1CCC(c2nc3ccc(-c4cccc5ncccc45)cc3c(=O)[nH]2)C1` (stereo not shown) [Example 14, 2-[1-(Prop-2-enoyl)pyrrolidin-3-yl]-6-(quinolin-5-yl)quinazolin-4(3H)-one], the negative logarithm of the IC50 (pIC50) on KRAS^WT and at KRAS^G12C was below 4.70 each time. For the same molecule, the “Covalent Binding Assay (% binding)” value in assay [1] came out at 22%.

`C=CC(=O)N1CCC(c2cc3ncc(-c4sc(C)nc4C)cc3c(=O)[nH]2)C1` (stereo not shown) [Example 34, 3-(2,4-Dimethyl-1,3-thiazol-5-yl)-7-[1-(prop-2-enoyl)pyrrolidin-3-yl]-1,6-naphthyridin-5(6H)-one]: the pIC50 on KRAS^WT and at KRAS^G12C was below 4.70 in each case. For the same molecule, the “Covalent Binding Assay (% binding)” value in assay [1] amounted to 0%.

Consider `C=CC(=O)N1CCC(c2nc3ccc(-c4c(O)cccc4F)nc3c(=O)[nH]2)C1` (stereo not shown) [Example 38, 6-(2-Fluoro-6-hydroxyphenyl)-2[1-(prop-2-enoyl)pyrrolidin-3-yl]pyrido[3,2-d]pyrimidin-4(3H)-one], for which the pIC50 on KRAS^WT and on KRAS^G12C was below 4.70 each time. Further, the “Covalent Binding Assay (% binding)” value in assay [1] came to 0%.

For the molecule `C=CC(=O)N1CCC(c2cc3ncc(-c4ccccc4CC)cc3c(=O)[nH]2)C1` (stereo not shown) [Example 33, 3-(2-Ethylphenyl)-7-[1-(prop-2-enoyl)pyrrolidin-3-yl]-1,6-naphthyridin-5(6H)-one], the figures for the pIC50 on KRAS^WT and at KRAS^G12C were below 4.70 and 5.17, respectively. Also, in assay [1], the “Covalent Binding Assay (% binding)” value stood at 60%.

As for `C=CC(=O)N1CCC(c2nc3ccc(-c4ccc(F)cc4F)cc3c(=O)[nH]2)C1` (stereo not shown) [Example 13, 6-(2,4-Difluorophenyl)-2-[1-(prop-2-enoyl)pyrrolidin-3-yl]quinazolin-4(3H)-one], the negative-log IC50 (pIC50) on KRAS^WT was below 4.70; at KRAS^G12C, 5.08. Besides, the “Covalent Binding Assay (% binding)” value in assay [1] is listed as 57%.

Turning to `C=CC(=O)N1CCC(c2nc3ccc(-c4ccccc4CC)cc3c(=O)[nH]2)C1` (stereo not shown) [Example 15, 6-(2-Ethylphenyl)-2-[1-(prop-2-enoyl)pyrrolidin-3-yl]quinazolin-4(3H)-one], the negative logarithm of the IC50 (pIC50) at KRAS^WT is below 4.70; at KRAS^G12C, 5.14. Moreover, the “Covalent Binding Assay (% binding)” value in assay [1] stood at 52%.

Take `C=CC(=O)N1CCC(c2nc3cc(Cl)c(-c4c(F)cccc4OC)cc3c(=O)[nH]2)C1` (stereo not shown) [Example 21, 7-Chloro-6-(2-fluoro-6-methoxyphenyl)-2-[1-(prop-2-enoyl)pyrrolidin-3-yl]quinazolin-4(3H)-one]: the pIC50 on KRAS^WT and at KRAS^G12C was below 4.70 in each case. Moreover, the “Covalent Binding Assay (% binding)” value in assay [1] was found to be 26%.

`C=CC(=O)N1CCC(c2cc3ccc(-c4cc(F)cc(F)c4)cc3c(=O)[nH]2)C1` (stereo not shown) [Example 8, 7-(3,5-Difluorophenyl)-3-[1-(prop-2-enoyl)pyrrolidin-3-yl]isoquinolin-1(2H)-one]: in assay [1], the “Covalent Binding Assay (% binding)” value is listed as 0%.

As for `C=CC(=O)N1CCC(c2cc3cc(Cl)c(-c4c(O)cccc4F)cc3c(=O)[nH]2)C1` (stereo not shown) [Example 27, 6-Chloro-7-(2-fluoro-6-hydroxyphenyl)-3-[1-(prop-2-enoyl)pyrrolidin-3-yl]isoquinolin-1(2H)-one], the pIC50 at KRAS^G12C was 4.80.

For the molecule `C=CC(=O)N1CCC(c2cc3ccc(-c4c(O)cccc4F)cc3c(=O)[nH]2)C1` (stereo not shown) [Example 1, 7-(2-Fluoro-6-hydroxyphenyl)-3-[1-(prop-2-enoyl)pyrrolidin-3-yl]isoquinolin-1(2H)-one], on KRAS^G12C, the pIC50 is 5.33.

For the molecule `C=CC(=O)N1CCC(c2cc3cc(O)c(-c4ncccc4F)cc3c(=O)[nH]2)C1` (stereo not shown) [Example 10, 3-(1-Acryloylpyrrolidin-3-yl)-7-(3-fluoropyridin-2-yl)-6-hydroxy-isoquinolin-1(2H)-one], the pIC50 at KRAS^WT and at KRAS^G12C was below 4.70 in each case. In addition, the “Covalent Binding Assay (% binding)” value in assay [1] was 0%.

In the case of `C=CC(=O)N1CCC(c2cc3ccc(-c4ccccc4CC)cc3c(=O)[nH]2)C1` (stereo not shown) [Example 5, 7-(2-Ethylphenyl)-3-[1-(prop-2-enoyl)pyrrolidin-3-yl]isoquinolin-1(2H)-one], the pIC50 on KRAS^G12C was 5.10. Also, the “Covalent Binding Assay (% binding)” value in assay [1] stood at 60%.

`C=CC(=O)N1CCC(c2cc3ccc(-c4ccc(F)cc4F)cc3c(=O)[nH]2)C1` (stereo not shown) [Example 4, 7-(2,4-Difluorophenyl)-3-[1-(prop-2-enoyl)pyrrolidin-3-yl]isoquinolin-1(2H)-one]: the pIC50 at KRAS^G12C was 5.30.

`C=CC(=O)N1CCC(c2cc3ccc(-c4cccc5ncccc45)cc3c(=O)[nH]2)C1` (stereo not shown) [Example 2, 3-[1-(Prop-2-enoyl)pyrrolidin-3-yl]-7-(quinolin-5-yl)isoquinolin-1(2H)-one]: the pIC50 at KRAS^G12C is below 5.05. In assay [1], the “Covalent Binding Assay (% binding)” value was 20%.

With `C=CC(=O)N1CCC(c2cc3ncc(-c4c(O)cccc4F)cc3c(=O)[nH]2)C1` (stereo not shown) [Example 29, 3-(2-Fluoro-6-hydroxyphenyl)-7-[1-(prop-2-enoyl)pyrrolidin-3-yl]-1,6-naphthyridin-5(6H)-one], the pIC50 at KRAS^G12C is 5.55. Moreover, the “Covalent Binding Assay (% binding)” value in assay [1] worked out at 80%.

For `C=CC(=O)N1CCC(c2nc3ccc(-c4c(O)cccc4F)cc3c(=O)[nH]2)C1` (stereo not shown) [Example 17, 6-(2-Fluoro-6-hydroxyphenyl)-2-[1-(prop-2-enoyl)pyrrolidin-3-yl]quinazolin-4(3H)-one], the pIC50 at KRAS^G12C is 5.31.

Take `C=CC(=O)N1CCC(c2cc3cnc(-c4c(O)cccc4F)cc3c(=O)[nH]2)C1` (stereo not shown) [Example 42, 7-(2-Fluoro-6-hydroxyphenyl)-3-[1-(prop-2-enoyl)pyrrolidin-3-yl]-2,6-naphthyridin-1(2H)-one]: at KRAS^G12C, the negative-log IC50 (pIC50) is 5.89. The “Covalent Binding Assay (% binding)” value in assay [1] stood at 61%.
